pIC50: −log10 of the molar value. Structures can show the parent of a compound that is named as a salt.
Target: T1, human SPNS2 (Homo sapiens, UniProt Q8IVW8)
T1 construct: expressed in transfected cells; host or cells: Saccharomyces cerevisiae strain with forced expression of a mammalian SphK and human SPNS2
T1 sequence (Q8IVW8 1-549): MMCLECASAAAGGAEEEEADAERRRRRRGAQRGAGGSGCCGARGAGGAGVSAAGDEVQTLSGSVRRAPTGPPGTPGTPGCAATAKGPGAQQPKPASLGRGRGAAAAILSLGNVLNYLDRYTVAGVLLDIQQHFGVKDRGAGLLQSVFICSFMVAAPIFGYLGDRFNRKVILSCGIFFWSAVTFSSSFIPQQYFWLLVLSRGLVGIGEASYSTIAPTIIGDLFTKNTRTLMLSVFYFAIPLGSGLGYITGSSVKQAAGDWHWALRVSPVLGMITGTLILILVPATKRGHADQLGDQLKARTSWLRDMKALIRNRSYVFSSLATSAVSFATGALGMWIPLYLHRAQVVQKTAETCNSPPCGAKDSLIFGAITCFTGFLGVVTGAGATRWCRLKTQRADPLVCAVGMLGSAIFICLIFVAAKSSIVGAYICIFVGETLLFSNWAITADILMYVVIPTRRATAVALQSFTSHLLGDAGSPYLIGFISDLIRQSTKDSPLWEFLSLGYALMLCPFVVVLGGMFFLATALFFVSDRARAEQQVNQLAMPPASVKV
Experiment: S1P transporter assay: growth of S. cerevisiae strain with forced expression of a mammalian SphK and human SPNS2
Format: cell-based
Conditions: in vitro inhibition of SPNS2; growth of S. cerevisiae strain expressing mammalian SphK and human SPNS2; compounds as their pharmaceutical salts
Summary of the method: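 S. cerevisiae strain with forced expression of a mammalian SphK and human SPNS2; since excess phospho-LCB inhibits yeast growth, SPNS2 inhibitors reduce growth of this strain. Inhibition measured in vitro as decreased strain growth.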

pIC50	Compound
< 5.70	CCCCCCCCCO/N=C(\C)c1ccc(-c2noc([C@@H]3CCN(C(=N)N)C3)n2)cc1 [Compound 40j, (R)-3-(3-(4-(1-((nonyloxy)imino)ethyl)phenyl)-1,2,4-oxadiazol-5-yl)pyrrolidine-1-carboximidamide hydrochloride]
< 5.70	CCCCCCCCCCOc1ccc(-c2noc([C@@H]3CCCNC3)n2)cc1C(F)(F)F [Compound 21f, (R)-3-(4-(decyloxy)-3-(trifluoromethyl)phenyl)-5-(piperidin-3-yl)-1,2,4-oxadiazole hydrochloride]
< 5.70	CCCCCCCCNC(=O)c1ccc(-c2noc([C@@H]3CCN(C(=N)N)C3)n2)cc1 [Compound 40p, (R)-4-(5-(1-carbamimidoylpyrrolidin-3-yl)-1,2,4-oxadiazol-3-yl)-N-octylbenzamide hydrochloride]
< 5.70	N=C(N)N1CC(c2nc(-c3ccc(OCCCc4ccccc4)c(C(F)(F)F)c3)no2)C1 [Compound 23i, 3-(3-(4-(3-phenylpropoxy)-3-(trifluoromethyl)phenyl)-1,2,4-oxadiazol-5-yl)azetidine-1-carboximidamide hydrochloride]
< 5.70	CCCCCCCCCc1ccc(-c2noc([C@@H]3CCCNC3)n2)cc1C(F)(F)F [Compound 28d, (R)-3-(4-nonyl-3-(trifluoromethyl)phenyl)-5-(piperidin-3-yl)-1,2,4-oxadiazole hydrochloride]
< 5.70	C/C(=N\OCc1ccc2c(c1)C(C)(C)CCC2(C)C)c1ccc(-c2noc([C@@H]3CCNC3)n2)cc1 [Compound 38h, (R)-1-(4-(5-(pyrrolidin-3-yl)-1,2,4-oxadiazol-3-yl)phenyl)ethan-1-one O-((5,5,8,8-tetramethyl-5,6,7,8-tetrahydronaphthalen-2-yl)methyl) oxime hydrochloride]
≥ 5.70	CCCCCCCCCCc1ccc(Nc2ccc(-c3noc([C@@H]4CCN(C(=N)N)C4)n3)cn2)cc1 [Compound 15h, (R)-3-(3-(6-((4-decylphenyl)amino)pyridin-3-yl)-1,2,4-oxadiazol-5-yl)pyrrolidine-1-carboximidamide hydrochloride]
< 5.70	Fc1cc(Nc2ccc(-c3noc([C@@H]4CCCNC4)n3)cn2)ccc1OC(F)(F)F [Compound 13c, (R)—N-(3-fluoro-4-(trifluoromethoxy)phenyl)-5-(5-(piperidin-3-yl)-1,2,4-oxadiazol-3-yl)pyridin-2-amine hydrochloride]
≥ 5.70	CCCCCCCCCc1ccc(-c2noc(C3CN(C(=N)N)C3)n2)cc1 [Compound 7c, 3-(3-(4-nonylphenyl)-1,2,4-oxadiazol-5-yl)azetidine-1-carboximidamide hydrochloride]
< 5.70	CCCCCCCCCCc1ccc(-c2noc([C@H]3CCN(C(=N)N)C3)n2)cc1 [Compound 7e, (S)-amino(3-(3-(4-decylphenyl)-1,2,4-oxadiazol-5-yl)pyrrolidin-1-yl)methaniminium chloride]
< 5.70	N=C(N)N1CCC[C@@H](c2nc(-c3ccc(OCCCc4ccccc4)c(C(F)(F)F)c3)no2)C1 [Compound 23j, (R)-3-(3-(4-(3-phenylpropoxy)-3-(trifluoromethyl)phenyl)-1,2,4-oxadiazol-5-yl)piperidine-1-carboximidamide hydrochloride]
≥ 5.70	CCCCCCCCCCc1ccc(-c2noc(C[C@@H]3CCCNC3)n2)cc1 [Compound 5q, (S)-3-(4-decylphenyl)-5-(piperidin-3-ylmethyl)-1,2,4-oxadiazole 2,2,2-trifluoroacetate]
≥ 5.70	CCCCCCCCOc1ccc(-c2noc(C3CN(C(=N)N)C3)n2)cc1C(F)(F)F [Compound 23a, 3-(3-(4-(octyloxy)-3-(trifluoromethyl)phenyl)-1,2,4-oxadiazol-5-yl)azetidine-1-carboximidamide hydrochloride]
≥ 5.70	C/C(=N\OCc1ccc2c(c1)C(C)(C)CCC2(C)C)c1ccc(-c2noc([C@@H]3CCN(C(=N)N)C3)n2)cc1 [Compound 40h, (R)-3-(3-(4-(1-(((5,5,8,8-tetramethyl-5,6,7,8-tetrahydronaphthalen-2-yl)methoxy)imino)ethyl)phenyl)-1,2,4-oxadiazol-5-yl)pyrrolidine-1-carboximidamide hydrochloride]
< 5.70	C/C(=N\OCc1ccc(C(F)(F)F)cc1)c1ccc(-c2noc([C@@H]3CCNC3)n2)cc1 [Compound 38c, (R)-1-(4-(5-(pyrrolidin-3-yl)-1,2,4-oxadiazol-3-yl)phenyl)ethan-1-one O-(4-(trifluoromethyl)benzyl) oxime hydrochloride]
< 5.70	CCCCCCCCCCc1ccc(-c2noc(C[C@@H]3CCNC3)n2)cc1C(F)(F)F [Compound 28g, (S)-3-(4-decyl-3-(trifluoromethyl)phenyl)-5-(pyrrolidin-3-ylmethyl)-1,2,4-oxadiazole hydrochloride]

Compound	pIC50
C/C(=N\OCCCCc1ccccc1)c1ccc(-c2noc([C@@H]3CCN(C(=N)N)C3)n2)cc1 [Compound 40a, (R)-3-(3-(4-(1-((4-phenylbutoxy)imino)ethyl)phenyl)-1,2,4-oxadiazol-5-yl)pyrrolidine-1-carboximidamide hydrochloride]	≥ 5.70
